≈ marks a conversion by molar mass, not a printed value. Like-named read-outs stand apart in the source and are kept apart here.
Columns and labels:
[1] = tested on: MDA-MB-231 triple negative breast cancer cells; assay: Antiproliferative SRB assay, MDA-MB-231; format: cell-based; details: for IC50: mean ± SEM
Description: FIG. 1. […] Cell death measured by SRB assay after 72 hour of compound exposure (n≥3 biological replicates, error bars show SEM). IC50 values given as mean±SEM from ≥3 biological replicates.
To investigate the feasibility of developing a class of antitumor antibiotics based upon the DNM scaffold, the ability of the DNM to exert an antiproliferative effect against MDA-MB-231 breast cancer cells was evaluated.

[2] = tested on: E. coli; assay: Antibacterial MIC, microbroth dilution, E. coli; format: cell-based; details: for MIC: Escherichia coli
Description: (§1) To investigate this possibility, the antibacterial effects of the DNM derivatives was assessed against strains of E. coli, S. aureus, and MRSA using the microbroth dilution method (Table 2).

[3] = tested on: S. aureus; assay: Antibacterial MIC, microbroth dilution, S. aureus; format: cell-based; details: for MIC: Staphylococcus aureus
Description: as §1

[4] = tested on: MRSA; assay: Antibacterial MIC, microbroth dilution, MRSA; format: cell-based, S. aureus; details: Staphylococcus aureus, MRSA; microbroth dilution
Description: as §1

[5] = tested on: BT-474; assay: Antiproliferative SRB assay, BT-474; format: cell-based; details: Homo sapiens, BT-474, 72 h, Breast cancer, mean ± SEM
Description: (§2) Topoisomerase inhibitors such as DOX are used as single agent and in combination therapy to treat a wide-range of cancer types.

[6] = tested on: HCT-116; assay: Antiproliferative SRB assay, HCT-116; format: cell-based; details: Homo sapiens, HCT-116, 72 h, Colon cancer, mean ± SEM
Description: as §2

[7] = tested on: HeLa; assay: Antiproliferative SRB assay, HeLa; format: cell-based; details: Homo sapiens, 72 h, Ovarian cancer (footnote e), mean ± SEM
Description: as §2

[8] = tested on: ES-2; assay: Antiproliferative SRB assay, ES-2; format: cell-based; details: Homo sapiens, ES-2, 72 h, Cervical cancer (footnote f), mean ± SEM
Description: as §2

[9] = tested on: IMR32; assay: Antiproliferative SRB assay, IMR32; format: cell-based; details: Homo sapiens, IMR-32, 72 h, Neuroblastoma, mean ± SEM
Description: as §2

[10] = tested on: H460; assay: Antiproliferative SRB assay, H460; format: cell-based; details: Homo sapiens, NCI-H460, 72 h, Lung cancer, mean ± SEM
Description: as §2

[11] = tested on: HOS; assay: Antiproliferative SRB assay, HOS; format: cell-based; details: Homo sapiens, 72 h, Osteosarcoma, mean ± SEM
Description: as §2

[12] = tested on: Jurkat; assay: Cell viability Alamar Blue assay, Jurkat; format: cell-based; details: Homo sapiens, 72 h, Leukemia, mean ± SEM
Description: as §2

[13] = tested on: HL-60; assay: Cell viability Alamar Blue assay, HL-60; format: cell-based; details: Homo sapiens, HL-60, 72 h, Leukemia, mean ± SEM
Description: as §2

[14] = tested on: panel of cancer cells; assay: Average over panel of 10 cancer cell lines; format: cell-based; details: 72 hour, read-out: Average (mean) IC50 over the cell line panel
Description: as §2

[15] = target: T1, Top2cc (Homo sapiens, UniProt P11388); assay: ICE assay for Top2α-DNA complexes in H460 cells; format: cell-based; details: 50 μM
T1 construct: endogenous in cells; host or cells: H460
T1 sequence (P11388 whole entry): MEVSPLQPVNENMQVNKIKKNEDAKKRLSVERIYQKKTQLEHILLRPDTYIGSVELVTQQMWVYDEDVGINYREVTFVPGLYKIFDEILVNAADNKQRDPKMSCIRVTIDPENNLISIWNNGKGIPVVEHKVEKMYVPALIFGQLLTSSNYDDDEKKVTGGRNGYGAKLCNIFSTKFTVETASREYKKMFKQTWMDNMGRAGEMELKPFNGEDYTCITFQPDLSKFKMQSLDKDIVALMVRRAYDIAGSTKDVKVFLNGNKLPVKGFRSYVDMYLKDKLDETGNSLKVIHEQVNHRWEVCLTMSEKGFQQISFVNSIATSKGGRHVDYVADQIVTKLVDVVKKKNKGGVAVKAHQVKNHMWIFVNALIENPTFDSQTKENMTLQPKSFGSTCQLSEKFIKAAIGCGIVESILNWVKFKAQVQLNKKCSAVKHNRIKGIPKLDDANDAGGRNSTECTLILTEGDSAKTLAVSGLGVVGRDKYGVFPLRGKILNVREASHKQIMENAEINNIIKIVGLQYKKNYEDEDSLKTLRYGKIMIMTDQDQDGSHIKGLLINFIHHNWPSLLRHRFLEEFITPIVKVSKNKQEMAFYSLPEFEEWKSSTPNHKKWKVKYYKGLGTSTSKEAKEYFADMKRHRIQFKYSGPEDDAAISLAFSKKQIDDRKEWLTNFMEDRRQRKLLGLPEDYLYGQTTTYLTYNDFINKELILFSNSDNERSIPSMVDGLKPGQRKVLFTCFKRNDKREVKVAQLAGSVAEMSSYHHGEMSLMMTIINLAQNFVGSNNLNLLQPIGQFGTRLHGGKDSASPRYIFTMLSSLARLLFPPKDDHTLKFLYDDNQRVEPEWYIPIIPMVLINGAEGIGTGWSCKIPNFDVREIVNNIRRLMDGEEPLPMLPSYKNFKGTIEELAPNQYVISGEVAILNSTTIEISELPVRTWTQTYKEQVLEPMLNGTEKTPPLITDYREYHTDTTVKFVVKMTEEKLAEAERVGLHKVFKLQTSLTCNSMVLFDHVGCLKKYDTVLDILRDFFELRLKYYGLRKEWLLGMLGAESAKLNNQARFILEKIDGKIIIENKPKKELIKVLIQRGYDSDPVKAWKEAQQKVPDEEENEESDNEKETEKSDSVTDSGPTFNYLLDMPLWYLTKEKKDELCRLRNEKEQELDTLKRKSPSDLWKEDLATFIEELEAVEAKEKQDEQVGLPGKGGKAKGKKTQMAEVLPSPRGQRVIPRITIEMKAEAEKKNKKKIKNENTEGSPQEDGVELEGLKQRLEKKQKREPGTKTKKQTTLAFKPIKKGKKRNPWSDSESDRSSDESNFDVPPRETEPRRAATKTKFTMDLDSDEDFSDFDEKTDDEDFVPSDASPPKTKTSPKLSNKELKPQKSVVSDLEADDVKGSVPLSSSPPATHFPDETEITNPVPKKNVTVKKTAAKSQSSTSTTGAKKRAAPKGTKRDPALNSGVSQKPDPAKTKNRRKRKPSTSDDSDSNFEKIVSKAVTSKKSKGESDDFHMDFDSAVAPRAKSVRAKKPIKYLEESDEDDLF
Description: FIG. 3. DNM derivatives are dual Top1/Top2 inhibitors with different modes of inhibition. (a) Inhibition of decatenating ability of Top2α with increasing concentrations of ETP, 6DNM-NH3, 6DNM-Pyr, and Ph-6DNM-NH3. K, kinetoplast DNA; OC, open circular; R, relaxed. (b) Inhibition of relaxing ability of Top1 with increasing concentrations of CPT, 6DNM-NH3, 6DNM-Pyr, and Ph-6DNM-NH3. R, relaxed; S, supercoiled. (c) Detection of Top2a-DNA using the ICE Assay. Genomic DNA ([…]) of H460 cells treated with drugs (50 μM, 30 min) was applied to nitrocellulose membrane and immunoblotted for Top2a. (d) Detection of Top1-DNA adducts using ICE Assay. Same procedure as (c) using 1 μg of DNA. (e) Inhibition of ETP-induced poisoning of Top2a. H460 cells treated with indicated concentrations of inhibitor for 30 min prior to treatment with ETP (50 μM). Detection of Top2α as in (c).
The in vivo complex of enzyme (ICE) assay can be used to distinguish poisons from catalytic inhibitors. The ICE assay consists of isolating the genomic DNA of cells treated with small molecules in a manner the preserves covalent DNA-protein complexes and applying it to nitrocellulose membranes. Because topoisomerase poisons stabilize the cleavage complexes, DNA-protein complexes can be detected by immunoblotting for specific topoisomerases, whereas catalytic inhibitors produce no such result. To determine if DNM derivatives are acting as poisons or catalytic inhibitors, H460 human lung cells were exposed to 50 μM of the Top2 poison ETP, Ph-6DNM-NH3, 6DNM-NH3, and 6DNM-Pyr and assessed for their ability to stabilize Top2cc. […] In a similar fashion, next investigated was the mode of Top1 inhibition using the ICE assay (FIG. 3b).

[16] = Homo sapiens, MDA-MB-231, 72 h, SRB assay, 72 hour compound exposure, read-out: MDA-MB-231 IC50
[17] = SRB assay, 72 hour compound exposure, read-out: MDA-MB-231 IC50
[18] = Homo sapiens, MDA-MB-231, 72 h, Breast cancer, SRB assay, read-out: 72 hour IC50, MDA-MB-231

IC50 [1, 16] [nM]	MIC [2] [µg/mL]	MIC [3] [µg/mL]	IC50 [1, 18] [nM]	IC50 [5] [nM]	IC50 [7] [nM]	IC50 [10] [nM]	IC50 [12] [nM]	IC50 [13] [nM]	IC50 [14] [nM]	SMILES	IC50 [1, 17] [nM]	E. coli MIC [2] [µg/mL]	S. aureus MIC [3] [µg/mL]	IC50 [8] [nM]	IC50 [9] [nM]	IC50 [11] [nM]	further results
1600 ± 600	> 16	> 16								Cc1cc(=O)n(-c2ccccc2)c2c3c4c(cc12)c(C)cc(=O)n4C(CN)CO3 (stereo not drawn) [Compound 13]							
930 ± 400	> 16	2 (≈ 6.02 µM)								Cc1cc(=O)n2c3c(c4c(cc13)c1ccccc1c(=O)n4C)OCC2 [Compound 14]							MIC [4]: 0.5 µg/mL (≈ 1.5 µM)
										Cc1cc(=O)n2c3c(c4c(cc13)c1ccccc1c(=O)n4C)OCC2CN (stereo not drawn) [Compound 16]	30 ± 6	0.25	1				
										Cc1cc(=O)n2c3c(c4c(cc13)c1ccccc1c(=O)n4C)OCC2CN (stereo not drawn) [Compound 17]	130 ± 30	2	4				
										Cc1cc(=O)n(C)c2c3c4c(cc12)c(C)cc(=O)n4C(CN)CO3 (stereo not drawn) [Compound 18]	200 ± 10	0.25	0.5				
										Cc1cc(=O)n(C)c2c3c4c(cc12)c(C)cc(=O)n4C(CN)CO3 (stereo not drawn) [Compound 19]	4000 ± 800	>16	32				
17 ± 1	4 (≈ 10.2 µM)	0.5 (≈ 1.27 µM)	17 ± 1	90 ± 10	46 ± 2	11 ± 2	33 ± 4	55 ± 11	31	Cc1cc(=O)n(C)c2c3c4c(cc12)c(C)cc(=O)n4C(CN1CCCCC1)CO3 (stereo not drawn) [Compound 21]				22 ± 6	6 ± 1.6	21 ± 3	IC50 [6]: 8 ± 1 nM
31 ± 3	1 (≈ 2.41 µM)	0.25 (≈ 0.602 µM)	31 ± 3	235 ± 1	46 ± 2	7.2 ± 0.6	69 ± 7	94 ± 6	55	Cc1cc(=O)n2c3c(c4c(cc13)c1ccccc1c(=O)n4C)OCC2CN1CCCC1 (stereo not drawn) [Compound 22]				23 ± 4	4.9 ± 0.1	16 ± 0.4	IC50 [6]: 23 ± 3 nM
79 ± 7	2 (≈ 4.66 µM)	0.5 (≈ 1.16 µM)	79 ± 7	1000 ± 100	136 ± 5	24 ± 2	240 ± 40	440 ± 130	214	Cc1cc(=O)n2c3c(c4c(cc13)c1ccccc1c(=O)n4C)OCC2CN1CCCCC1 (stereo not drawn) [Compound 23]				67 ± 8	20 ± 0.2	55 ± 1	IC50 [6]: 79 ± 10 nM
			21 ± 2	260 ± 70	24 ± 9	6.1 ± 1	17 ± 3	84 ± 11	55	COc1cccc2c1C(=O)c1c(O)c3c(c(O)c1C2=O)C[C@@](O)(C(=O)CO)C[C@@H]3O[C@H]1C[C@H](N)[C@H](O)[C@H](C)O1 [Doxorubicin, doxorubicin, reference compound]				32 ± 3	2.9 ± 0.4	19 ± 7	Antiproliferative effect against MDA-MB-231 cells ([1]; FIG. 1, SRB assay, 72 hour): sensitive
										COc1cc([C@@H]2c3cc4c(cc3[C@@H](O[C@@H]3O[C@@H]5CO[C@@H](C)O[C@H]5[C@H](O)[C@H]3O)[C@H]3COC(=O)[C@H]23)OCO4)cc(OC)c1O [ETP, etoposide, reference compound]							Antiproliferative effect against MDA-MB-231 cells ([1]; FIG. 1, SRB assay, 72 hour): sensitive; Accumulation of Top2cc (ICE assay) [15]: resulted in the accumulation of Top2cc
										O=C(O)c1cn(C2CC2)c2cc(N3CCNCC3)c(F)cc2c1=O [ciprofloxacin, reference compound]							Antiproliferative effect against MDA-MB-231 cells ([1]; doses as high as 50 μM): only minimal effects

From patent US11274106B2, “Topoisomerase inhibitors with antibacterial and anticancer activity” (THE BOARD OF TRUSTEES OF THE UNIVERSITY OF ILLINOIS, priority 2017, dated 2022)
